According to a melting point compilation (Tetko et al.; mined from patent text by program, amines drawn as free bases though some values may be those of a salt):

Compared with `O=c1[nH]c2ccc(Cn3ccnc3)cc2[nH]c1=O`, `N#Cc1cn(-c2cccc(F)c2)c(=O)[nH]c1=O` is lower in melting point: > 300 °C for the first, 246 °C for the second.

Compared with `CC(=O)NCC1CC(c2ccc(N3CCOCC3)c(F)c2)=NO1` (single isomer, unassigned; (-)), `CC(=O)NCC1CCC(Nc2nc3c(s2)CCCc2ccc(F)cc2-3)CC1` (stereo unspecified) is lower in melting point: 179 to 180 °C for the first, 88 to 91 °C for the second.

First: CC12CCC(=O)C=C1CCC1C2CCC2(C)C(C(=O)C3CCCCC3)CCC12 (stereo unspecified)
Second: CCC1CC2C3CCC4=CC(=O)CCC4=C3C=CC2(C)C1OC(C)=O (stereo unspecified)
The melting point of the first is higher: 159 to 161 °C for the first, 95 to 98 °C for the second.

First: CN(CCO)CC1(SSC2(CN(C)CCO)CCCCC2)CCCCC1
Second: O=C(NC1CCCCC1)N(Cc1ccc(Cl)cc1)C1CCCC1
The melting point of the first is lower: 65 to 70 °C for the first, 99 to 101 °C for the second.

Compared with `COc1cc(OC)c(/C=C/C(=O)Nc2ccc(OC)c(N)c2)c(OC)c1`, `COc1ccc(OC)c(C=C2NC(=O)NC2=O)c1` is higher in melting point: 92 to 94 °C for the first, 250 to 252 °C for the second.

Compared with `COC(=O)NC1CCc2ccc(Cl)cc2C1=O` (stereo unspecified), `CSc1nnc(C2C(=O)N(C(N)=O)c3ccc(Cl)cc32)o1` (stereo unspecified) is higher in melting point: 126 to 127 °C for the first, 297 to 299 °C for the second.

Compared with `O=C(Cc1cccc(O)c1)NNC(=O)c1c(O)cc(O)cc1Cl`, `O=Cc1cc(-c2ccc(O)c(O)c2)c2cc(O)c(O)cc2c1O` is higher in melting point: 217 °C for the first, > 300 °C for the second.

Going from `CC(C)(C)c1cc(C=O)ccc1O` to `CC(C)(C)c1cc(C(=O)c2cccnc2)cc(C(C)(C)C)c1O`, the melting point rises from 142 °C to 144 °C.

Compared with `O=C(NCCCCC(NC(=O)OCc1ccccc1)C(=O)NC1OC(C(=O)O)CC1O)OCc1ccccc1` (stereo unspecified), `Nc1cc(C(O)=S)cc(Cc2ccccc2)c1C(=O)c1ccccc1` is higher in melting point: 86 to 100 °C for the first, 141 to 142 °C for the second.

Compared with `CC(C)c1nsc(N=CN(C)C)c1C#N`, `Cc1cc2c(c(C)c1O)C(C)CN2C(=O)C(C)C` (stereo unspecified) is higher in melting point: 95 to 97 °C for the first, 123 to 125 °C for the second.

First: C[C@H]1CCCC(C)(C)[C@@H]1C(=O)c1ccc(C#N)c(C(F)(F)F)c1
Second: CC(C)(C)OC(=O)N1CCC(COc2ccc([N+](=O)[O-])cc2)CC1
The melting point of the first is lower: 81.6 to 82.4 °C for the first, 130 to 131 °C for the second.

Compared with `NCCCN(CC1COc2ncccc2O1)c1ccc(Cl)nn1` (stereo unspecified), `Clc1cccc(C2=Nc3cccnc3Nc3ccccc32)c1` is higher in melting point: 101 °C for the first, 160 °C for the second.

First: C=C(C)C(=O)Oc1ccc(S(=O)(=O)N(C(=O)OC(C)(C)C)c2ccccc2)cc1
Second: COc1ccc(N=C(C)c2ccccc2)cc1
The melting point of the first is higher: 112 to 114 °C for the first, 81 to 82 °C for the second.

First: CN1CCN(c2cccc3ccc(C(O)(c4ccccc4)c4ccccc4)cc23)CC1
Second: CCC(C(=O)N(C)C)C(C#N)(c1ccccc1)c1ccccc1 (stereo unspecified)
The melting point of the first is higher: 218 °C for the first, 170 to 172 °C for the second.

First: Cc1c(-c2ccccc2)sc2nc(Nc3ccccc3)[nH]c(=O)c12
Second: CCS(=O)c1nc(-c2ccccc2)c(-c2ccccc2)o1 (stereo unspecified)
The melting point of the first is higher: 270 to 290 °C for the first, 133 to 134 °C for the second.

Compared with `O=S(CCCCCCOc1ccc(C2=C(c3ccccc3)CCCc3cc(O)ccc32)cc1)Cc1ccccn1` (stereo unspecified), `Cc1ccccc1C(=O)N(c1ccccc1)c1ccc(OCCN(C)C)cc1` is higher in melting point: 80 °C for the first, 98.5 to 102 °C for the second.

First: CNc1ccc2cnc(C(=O)c3ccc([N+](=O)[O-])c(C(=O)OC)c3)n2c1
Second: CC(=O)NC[C@H]1CN(c2ccc(C(=O)c3cnc4ccc([N+](=O)[O-])cn34)cc2)C(=O)O1
The melting point of the first is lower: 183 °C for the first, 223 to 225 °C for the second.

First: C#CCSC(=S)N(C)C
Second: CC(=O)Nc1ccc(-n2ccnc2S(=O)Cc2ccccc2N(C)C)nc1 (stereo unspecified)
The melting point of the first is lower: 57 to 59 °C for the first, 168 to 170 °C for the second.

First: CCOC(=O)c1ccc2[nH]cc(CCCI)c2c1
Second: CCOCCc1ccc(OCC=NO)c(C)c1C
The melting point of the first is lower: 81 °C for the first, 102 to 105 °C for the second.

First: CC1=CC2=C(C)C3(CC3)C(C)(O)C(=O)C2=C1 (stereo unspecified)
Second: CC1(C)CCC(C)(C)c2cc(C#Cc3ccc(C=O)cc3)ccc21
The melting point of the first is higher: 138 to 140 °C for the first, 130 °C for the second.

First: Cc1ccc(CCCOc2c(C)cc(-c3nnn(C)n3)cc2C)nn1
Second: Cc1ccc(Cc2nc3c(nnn3C(C)CCCc3ccccc3)c(=O)[nH]2)cc1 (stereo unspecified)
The melting point of the first is lower: 114 to 115 °C for the first, 130 °C for the second.

First: Cc1cccc(-c2c(O)c3ccc(Cl)cc3[nH]c2=O)c1
Second: Cc1cc(=O)c2ccc(N)cc2s1
The melting point of the first is higher: > 350 °C for the first, 165 to 169 °C for the second.

Compared with `CC(=O)NS(=O)(=O)c1ccc(NC(=O)c2ccccc2SSc2ccccc2C(=O)Nc2ccc(S(=O)(=O)NC(C)=O)cc2)cc1`, `Cc1ccccc1NC(=O)Nc1ccc(NC(=O)C(CC(=O)Nc2ccc(C(=O)O)cc2)c2ccccc2)cc1` (stereo unspecified) is lower in melting point: 180 to 182 °C for the first, 169 °C for the second.

First: CS(=O)(=O)c1ccc(-c2nc(C(F)(F)F)[nH]c2-c2ccc(Cl)c(Cl)c2)cc1
Second: O=c1[nH]c(C(F)(F)F)nc2ccc(S(=O)(=O)O)cc12
The melting point of the first is lower: 249 to 251 °C for the first, > 330 °C for the second.

First: CCCCCCC(=N)NC(=S)Nc1ccc(Cl)c(Cl)c1
Second: CCCCCCCCCCCCSc1nnn(C(C(=O)O)c2ccccc2)n1 (stereo unspecified)
The melting point of the first is higher: 89 to 90 °C for the first, 64 to 67 °C for the second.

First: Fc1cccc(CSc2nnc(-c3ccn4ncnc4c3)o2)c1
Second: CCc1noc(-c2cn(-c3cccc(OCCc4ccccc4)c3)cn2)n1
The melting point of the first is higher: 153 to 154 °C for the first, 124 to 125 °C for the second.

First: Cn1c(C(F)(F)F)cc(=O)n(-c2cc(OCS(C)=O)c(Cl)cc2F)c1=O (stereo unspecified)
Second: Cn1c(C(F)(F)F)cc(=O)n(-c2ccc3snc(CP(=O)(O)O)c3c2)c1=O
The melting point of the first is lower: 178 to 179 °C for the first, > 230 °C for the second.

First: O=c1c2ccc(Cl)cc2sn1CCCCl
Second: CCCCOC(=O)c1c(N)c2cccnc2n(CC)c1=O
The melting point of the first is lower: 89 °C for the first, 117 to 120 °C for the second.

First: O=C(c1ccc(F)cc1Cl)N1Cc2cccn2Cc2ccccc21
Second: COc1ccc2c(c1)Sc1ccccc1CN2C=O
The melting point of the first is higher: 110 to 112 °C for the first, 98 to 100 °C for the second.

First: CC1(C)OC(=C(C#N)C#N)C(C#N)=C1c1ccc(F)cc1
Second: CCCCc1nnc(-c2ccc([N+](=O)[O-])cc2)o1
The melting point of the first is higher: 263 °C for the first, 68 to 70 °C for the second.

First: Nc1cccc(-c2ccc(CCN3CCN(c4nnnn4-c4ccc(F)cc4)CC3)cc2)n1
Second: Cc1c(C(=O)Nc2ccc(N3CCN(C)CC3)c(C#N)c2)cnn1-c1ccc(F)cc1
The melting point of the first is lower: 185 to 187 °C for the first, 205 to 207 °C for the second.

First: O=C1CCC(N2Cc3c(OCc4cnc5ccccc5c4)cccc3C2=O)C(=O)N1 (stereo unspecified)
Second: COC(=O)COc1ccc2c(c1)sc1cc3ccccc3c(-c3ccc(O)cc3)c12
The melting point of the first is higher: 270 to 273 °C for the first, 229 to 231 °C for the second.

First: CC(C)(C)c1ccc(CNC(=S)NC(C)(C)c2ccc(NS(C)(=O)=O)cc2)cc1
Second: CS(=O)(=O)Nc1cc2occ(Nc3ccccc3)c(=O)c2cc1Oc1ccccc1
The melting point of the first is lower: 161 to 164 °C for the first, 212 to 213 °C for the second.

First: C=CCN1C(C)(C)CC(O)CC1(C)C
Second: COC(=O)/C=C\C1C(C(=O)O)C1(C)C (stereo unspecified)
The melting point of the first is lower: 84 to 85 °C for the first, 106 °C for the second.

First: CCN1CCc2ccc(OC)c(Nc3ncc(Cl)c(Nc4ccc(N5CCOCC5)cc4OC)n3)c2CC1=O
Second: COc1ccc(CN(CC2CCOCC2)S(=O)(=O)c2ccc(Cl)cc2)cc1C(=O)O
The melting point of the first is lower: 87 to 103 °C for the first, 158 to 159 °C for the second.

First: O=C(NCc1ccc(F)c(F)c1)c1cc(-n2cnn(Cc3ccc(F)cc3)c2=O)n[nH]1
Second: CCCc1cc(-c2ccc(C3COC(c4c(F)cccc4F)=N3)cc2)ccc1O (stereo unspecified)
The melting point of the first is lower: 208 to 209 °C for the first, 210 to 215 °C for the second.

Compared with `CCCCCCCCCCCCCCCCC(N)C(O)CO` (stereo unspecified), `CCCCCCCCC#CCC#CCC#CCSCC(=O)NCCO` is lower in melting point: 92 to 93 °C for the first, 77 °C for the second.

First: CSc1cc(C)nc(SC)c1NC(=O)CCCCCSc1nc2ccccc2o1
Second: CCCC(=O)c1cc2ccccc2cc1C(=O)O
The melting point of the first is higher: 120 to 121 °C for the first, 109 °C for the second.

Compared with `O=c1[nH]c(N2CCN(CCCCN3CCCCC3)CC2)cc2c(Br)cccc12`, `O=C(Cc1ccc(Cl)c(Cl)c1)N1CCC2(CC1CN1CCCC1)SCCS2` (stereo unspecified) is lower in melting point: 165 to 166 °C for the first, 119 to 120 °C for the second.

Compared with `CC1(C)CCC(C)(C)c2cc(-c3cc(I)ccc3-c3ccccc3)ccc21`, `Cn1nc(-c2ccncc2)c(-c2ccc(Cl)cc2)c1N` is higher in melting point: 120 to 122 °C for the first, 257 to 258 °C for the second.

First: CCOc1ccc(-c2nc(-c3ccc(OCC(=O)OC)c(C(=O)OC)c3)cs2)cc1OCC
Second: COC(=O)C(CO)N(Cc1cc(F)ccc1[N+](=O)[O-])S(=O)(=O)c1ccc(OC)cc1 (stereo unspecified)
The melting point of the first is higher: 96 to 97 °C for the first, 83 to 88 °C for the second.

First: COc1ccc2cccc3c2c1CCC3CNC(=O)C1CC1 (stereo unspecified)
Second: CC(=O)O[C@H]1CC[C@H](c2ccc(I)cc2)CC1
The melting point of the first is higher: 119 °C for the first, 84.4 to 85.4 °C for the second.

Compared with `O=C(N[C@H]1CC[C@H](CCN2CCN(c3nccc4c3OCC4)CC2)CC1)c1ccc2ncccc2c1`, `CC(C(=O)c1ccccc1)N1CCN(c2nc3nccc(-c4ccncc4)n3n2)CC1` (stereo unspecified) is lower in melting point: 212 °C for the first, 142 to 144 °C for the second.

Compared with `O=[N+]([O-])c1cc(NS(=O)(=O)CCl)ccc1F`, `CN(Cc1ccccc1)c1nc(=O)c2cc(C(F)(F)F)cc([N+](=O)[O-])c2s1` is higher in melting point: 112 to 113 °C for the first, 120 to 124 °C for the second.

First: Nc1nc(N)c2nc(-c3cccc(O)c3)cnc2n1
Second: CC(C)OP(=O)(/C=C/CCn1cnc2c(N)nc(N)nc21)OC(C)C
The melting point of the first is higher: > 300 °C for the first, 211 to 213 °C for the second.

First: CCCC(=O)NC[C@@H]1CN(c2nc3c(cc2F)c(=O)c(C(=O)OCC)cn3C2CC2)C[C@H]1F (relative stereo)
Second: CCCN1C(=O)N2C[C@@H](Cc3ccccc3)N=C2c2[nH]c(C3(O)CCCC3)nc21
The melting point of the first is lower: 105 to 107 °C for the first, 110 to 115 °C for the second.

Compared with `CN1CCN(C(=O)NC(CS)Cc2ccccc2)CC1` (single isomer, unassigned; (-)), `CNC(=O)Oc1ccccc1Cl` is higher in melting point: 68 to 70 °C for the first, 90 to 91 °C for the second.

First: O=C1N[C@H](C(=O)NCCO)CS1
Second: N#CC1CN1C(=O)CCC(N)=O (stereo unspecified)
The melting point of the first is higher: 116 to 118 °C for the first, 68 to 72 °C for the second.

First: COCCOc1ccc(N=Nc2c(C#N)[nH]n(-c3ccccc3)c2=O)cc1S(=O)(=O)O
Second: CCOC1(OCC)OC(C)=C(C(=O)Nc2ccc(Cl)cc2)[C@@H](NC(C)=O)[C@@H]1C (relative stereo)
The melting point of the first is higher: 263 to 265 °C for the first, 199 to 201 °C for the second.

Compared with `C#Cc1c(C#N)nn(-c2c(Cl)cc(C(F)(F)F)cc2Cl)c1Cl`, `ON=C(c1ccc(F)cc1)c1ccc(O)c(Cl)c1Cl` is higher in melting point: 109 to 110 °C for the first, 150 to 156 °C for the second.

In the case of `CC(C)(C)c1cc(C(C)(CC(=O)NN)c2cc(C(C)(C)C)c(O)c(C(C)(C)C)c2)cc(C(C)(C)C)c1O`, the melting point is reported as 172 °C.
